Measurements as given in ChEMBL document CHEMBL4184315, “Discovery of Inhibitor of Wnt Production 2 (IWP-2) and Related Compounds As Selective ATP-Competitive Inhibitors of Casein Kinase 1 (CK1) δ/ε” (J Med Chem, 2018).
The source made the active and inactive calls. The rule behind the calls is not given here.

How the values were obtained:
[1] = molecular target: T1, Casein kinase I isoform delta (Homo sapiens, UniProt P48730); experiment: Inhibition of CK1delta isolated from human PANC1 cells at 5 uM using GST-tagged p53 (1 to 64 residues) as substrate after 30 mins in presence of [gamma-32P]-ATP by Cherenkov counting method
[2] = Antiproliferative activity against human A818-6 cells after 48 hrs by MTT assay; assay type: functional, cell-based
HEK293 = experiment: Antiproliferative activity against human HEK293 cells after 48 hrs by MTT assay; assay type: functional, cell-based; details: HEK293, 48 h
MIA PaCa-2 = experiment: Antiproliferative activity against human MIAPaCa2 cells after 48 hrs by MTT assay; assay type: functional, cell-based; details: MIA PaCa-2, 48 h
[3] = molecular target: Casein kinase I isoform delta (Rattus norvegicus) (UniProt Q06486); experiment: Ratio of IC50 for full-length rat GST-tagged CK1delta to IC50 for rat recombinant CK1delta kinase domain
[4] = Selectivity ratio of IC50 for human CK1epsilon to IC50 for rat recombinant CK1delta kinase domain
[5] = molecular target: Casein kinase I isoform delta (Rattus norvegicus, UniProt Q06486, M82F); experiment: Inhibition of rat GST-tagged CK1delta M82F mutant at 10 uM using alpha-casein as substrate after 30 mins in presence of [gamma-32P]-ATP by Cherenkov counting method
[6] = molecular target: Casein kinase I isoform delta (Rattus norvegicus) (UniProt Q06486); experiment: Inhibition of full-length rat GST-tagged CK1delta at 10 uM using alpha-casein as substrate after 30 mins in presence of [gamma-32P]-ATP by Cherenkov counting method
[7] = Antiproliferative activity against human Panc89 cells after 48 hrs by MTT assay; assay type: functional, cell-based
SW-620 = experiment: Antiproliferative activity against human SW620 cells after 48 hrs by MTT assay; assay type: functional, cell-based; details: SW-620, 48 h
[8] = molecular target: T2, Casein kinase I isoform alpha (Bos taurus) (UniProt P67827); experiment: Inhibition of bovine GST-tagged CK1alpha at 10 uM using alpha-casein as substrate after 30 mins in presence of [gamma-32P]-ATP by Cherenkov counting method
T2 sequence (whole entry): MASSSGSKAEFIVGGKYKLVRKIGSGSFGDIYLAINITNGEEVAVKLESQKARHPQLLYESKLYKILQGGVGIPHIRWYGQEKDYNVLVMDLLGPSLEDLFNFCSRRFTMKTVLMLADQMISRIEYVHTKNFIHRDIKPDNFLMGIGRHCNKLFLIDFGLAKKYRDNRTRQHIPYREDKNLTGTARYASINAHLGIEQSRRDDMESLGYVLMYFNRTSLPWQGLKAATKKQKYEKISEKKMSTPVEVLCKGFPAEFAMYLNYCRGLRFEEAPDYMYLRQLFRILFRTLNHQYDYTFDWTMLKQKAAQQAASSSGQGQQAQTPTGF

[9] = molecular target: Casein kinase I isoform epsilon (Homo sapiens, UniProt P49674); experiment: Inhibition of human recombinant CK1epsilon using alpha-casein as substrate after 30 mins in presence of [gamma-32P]-ATP by Cherenkov counting method
CAPAN-1 = experiment: Antiproliferative activity against human Capan1 cells after 48 hrs by MTT assay; assay type: functional, cell-based; details: CAPAN-1, 48 h
PANC-1 = experiment: Antiproliferative activity against human PANC1 cells after 48 hrs by MTT assay; assay type: functional, cell-based; details: PANC-1, 48 h
HT-29 = experiment: Antiproliferative activity against human HT-29 cells after 48 hrs by MTT assay; assay type: functional, cell-based; details: HT-29, 48 h
[10] = molecular target: Casein kinase I isoform gamma-3 (Homo sapiens) (UniProt Q9Y6M4); experiment: Inhibition of human GST-tagged CK1gamma3 at 10 uM using alpha-casein as substrate after 30 mins in presence of [gamma-32P]-ATP by Cherenkov counting method
[11] = Selectivity ratio of IC50 for human CK1epsilon to IC50 for full-length rat GST-tagged CK1delta
[12] = molecular target: T3, Casein kinase I isoform delta (Rattus norvegicus, UniProt Q06486); experiment: Inhibition of rat recombinant CK1delta kinase domain using alpha-casein as substrate after 30 mins in presence of [gamma-32P]-ATP by Cherenkov counting method
[13] = molecular target: Casein kinase I isoform delta (Rattus norvegicus) (UniProt Q06486); experiment: Inhibition of rat recombinant CK1delta kinase domain at 10 uM using alpha-casein as substrate after 30 mins in presence of [gamma-32P]-ATP by Cherenkov counting method
[14] = molecular target: T3, Casein kinase I isoform delta; experiment: Inhibition of full-length rat GST-tagged CK1delta using alpha-casein as substrate after 30 mins in presence of [gamma-32P]-ATP by Cherenkov counting method
[15] = molecular target: T4, Casein kinase I delta/epsilon (Homo sapiens) (UniProt P48730+P49674); experiment: Inhibition of CK1delta/epsilon in HEK293T cells transfected with Wnt3A-expressing vector assessed as suppression of Wnt/beta-catenin signaling up to 0.1 uM after 22 hrs by Super-top flash reporter gene assay; assay type: cell-based
[16] = molecular target: T4, Casein kinase I delta/epsilon (Homo sapiens); experiment: Inhibition of CK1delta/epsilon in HEK293T cells assessed as suppression of Wnt/beta-catenin signaling up to 0.1 uM after 22 hrs in presence of Wnt3A-conditioned medium by Super-top flash reporter gene assay; assay type: cell-based
[17] = molecular target: T1, Casein kinase I isoform delta; details: 125 uM
[18] = molecular target: T2, Casein kinase I isoform alpha (Bos taurus); experiment: Inhibition of bovine GST-tagged CK1alpha at 1 uM using alpha-casein as substrate after 30 mins in presence of [gamma-32P]-ATP by Cherenkov counting method
[19] = molecular target: Casein kinase I isoform gamma-3 (Homo sapiens) (UniProt Q9Y6M4); experiment: Inhibition of human GST-tagged CK1gamma3 at 1 uM using alpha-casein as substrate after 30 mins in presence of [gamma-32P]-ATP by Cherenkov counting method
HEK-293T [20] = experiment: Upregulation of renilla luciferase expression in HEK293T cells up to 5 uM after 22 hrs in presence of Wnt3A-conditioned medium by luminescence assay relative to control; assay type: cell-based; details: human
[21] = molecular target: T5, Protein-serine O-palmitoleoyltransferase porcupine (Homo sapiens) (UniProt Q9H237); experiment: Inhibition of porcupine in HEK293T cells transfected with Wnt3A-expressing vector assessed as suppression of Wnt/beta-catenin signaling at 5 uM after 22 hrs by Super-top flash reporter gene assay relative to control; assay type: cell-based
T5 sequence (whole entry): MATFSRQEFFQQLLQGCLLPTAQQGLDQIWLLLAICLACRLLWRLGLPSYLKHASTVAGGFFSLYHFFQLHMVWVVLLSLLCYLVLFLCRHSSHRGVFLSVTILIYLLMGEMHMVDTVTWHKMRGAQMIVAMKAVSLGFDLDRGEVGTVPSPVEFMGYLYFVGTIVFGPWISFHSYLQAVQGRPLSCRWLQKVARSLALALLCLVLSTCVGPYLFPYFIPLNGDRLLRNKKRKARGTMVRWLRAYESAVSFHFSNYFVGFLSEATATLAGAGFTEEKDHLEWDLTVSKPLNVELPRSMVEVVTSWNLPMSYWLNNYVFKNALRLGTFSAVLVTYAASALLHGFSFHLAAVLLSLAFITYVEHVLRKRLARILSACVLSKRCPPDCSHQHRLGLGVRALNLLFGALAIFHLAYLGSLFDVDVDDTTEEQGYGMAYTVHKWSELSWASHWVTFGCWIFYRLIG

Homo sapiens = species on record: Homo sapiens; experiment: Inhibition of Wnt/beta-catenin signaling in HEK293T cells after 22 hrs in presence of Wnt3A-conditioned medium by Super-top flash reporter gene assay; assay type: cell-based
[22] = molecular target: T6, Protein-serine O-palmitoleoyltransferase porcupine (Homo sapiens, UniProt Q9H237); experiment: Inhibition of porcupine in HEK293T cells transfected with Wnt3A-expressing vector assessed as suppression of Wnt/beta-catenin signaling after 22 hrs by Super-top flash reporter gene assay; assay type: cell-based
T6 sequence (Q9H237 whole entry): T5 sequence (whole entry)

HEK-293T [23] = experiment: Upregulation of renilla luciferase expression in HEK293T cells transfected with Wnt3A-expressing vector up to 5 uM after 22 hrs by luminescence assay relative to control; assay type: cell-based; details: human
[24] = molecular target: Casein kinase I isoform delta (Rattus norvegicus) (UniProt Q06486); experiment: Competitive inhibition of full-length rat GST-tagged CK1delta at IC50 using alpha-casein as substrate after 30 mins in presence of 10 to 500 uM ATP and [gamma-32P]-ATP by Cherenkov counting method
Rattus norvegicus = species on record: Rattus norvegicus; experiment: Selectivity ratio of IC50 for full-length rat GST-tagged CK1delta to IC50 for rat GST-tagged CK1delta M82F mutant
[25] = molecular target: Casein kinase I isoform delta (Rattus norvegicus) (UniProt Q06486); experiment: Inhibition of rat recombinant CK1delta kinase domain assessed as residual activity at 10 uM using alpha-casein as substrate after 30 mins in presence of [gamma-32P]-ATP by Cherenkov counting method
[26] = molecular target: Casein kinase I isoform delta (Rattus norvegicus) (UniProt Q06486); experiment: Inhibition of full-length rat GST-tagged CK1delta assessed as residual activity at 10 uM using alpha-casein as substrate after 30 mins in presence of [gamma-32P]-ATP by Cherenkov counting method

Chain of Casein kinase I isoform epsilon (P49674 whole entry, canonical isoform): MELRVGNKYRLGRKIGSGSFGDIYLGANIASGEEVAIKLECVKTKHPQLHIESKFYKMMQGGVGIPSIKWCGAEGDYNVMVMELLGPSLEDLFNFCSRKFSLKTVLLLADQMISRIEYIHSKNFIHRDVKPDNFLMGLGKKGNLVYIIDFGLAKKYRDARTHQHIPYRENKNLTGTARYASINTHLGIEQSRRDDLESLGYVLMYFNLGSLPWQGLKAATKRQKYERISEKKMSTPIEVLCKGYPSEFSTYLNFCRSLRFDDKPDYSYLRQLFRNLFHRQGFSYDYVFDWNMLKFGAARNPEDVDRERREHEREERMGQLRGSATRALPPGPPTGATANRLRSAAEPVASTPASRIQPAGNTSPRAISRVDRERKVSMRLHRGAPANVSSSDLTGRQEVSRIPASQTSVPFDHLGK
Chain of Casein kinase I isoform delta (Rattus norvegicus) (Q06486 whole entry, looked up, the tested form may be a part, canonical isoform): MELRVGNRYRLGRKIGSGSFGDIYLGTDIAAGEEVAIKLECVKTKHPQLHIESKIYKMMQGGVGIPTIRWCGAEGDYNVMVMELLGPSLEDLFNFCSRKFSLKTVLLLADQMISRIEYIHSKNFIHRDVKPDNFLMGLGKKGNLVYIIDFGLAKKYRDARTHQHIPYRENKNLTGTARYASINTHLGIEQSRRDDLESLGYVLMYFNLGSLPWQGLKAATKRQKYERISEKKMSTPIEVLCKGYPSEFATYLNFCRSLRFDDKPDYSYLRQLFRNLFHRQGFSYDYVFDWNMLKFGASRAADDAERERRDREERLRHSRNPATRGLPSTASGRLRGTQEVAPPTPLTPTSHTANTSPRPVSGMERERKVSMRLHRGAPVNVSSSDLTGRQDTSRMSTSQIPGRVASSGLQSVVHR
T3 sequence (Q06486 whole entry, the tested form may be a part, canonical isoform): as the sequence (Q06486 whole entry, looked up, the tested form may be a part, canonical isoform) above
Chain of Casein kinase I isoform delta (Rattus norvegicus, UniProt Q06486, M82F) (Q06486 whole entry M82F, canonical isoform): as the sequence (Q06486 whole entry, looked up, the tested form may be a part, canonical isoform) above, with M82F counted along it
Chain of Casein kinase I isoform gamma-3 (Homo sapiens) (Q9Y6M4 whole entry, looked up, canonical isoform): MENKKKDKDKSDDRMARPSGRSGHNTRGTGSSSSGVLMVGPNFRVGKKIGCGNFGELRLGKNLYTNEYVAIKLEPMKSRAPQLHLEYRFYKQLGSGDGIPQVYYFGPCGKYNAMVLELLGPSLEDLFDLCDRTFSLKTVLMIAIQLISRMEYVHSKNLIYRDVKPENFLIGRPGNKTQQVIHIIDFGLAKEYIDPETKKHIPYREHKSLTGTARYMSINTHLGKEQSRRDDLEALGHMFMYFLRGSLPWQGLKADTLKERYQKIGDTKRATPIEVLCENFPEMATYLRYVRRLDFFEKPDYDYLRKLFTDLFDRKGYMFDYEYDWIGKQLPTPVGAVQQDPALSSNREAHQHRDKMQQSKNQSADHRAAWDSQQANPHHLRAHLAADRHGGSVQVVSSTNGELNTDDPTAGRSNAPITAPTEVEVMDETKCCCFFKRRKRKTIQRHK
T4 sequence (P48730 whole entry, looked up): as the sequence (Q06486 whole entry, looked up, the tested form may be a part, canonical isoform) above, with V381I counted along it
T4 sequence (P49674 whole entry, looked up): as the sequence (P49674 whole entry, canonical isoform) above
T1 sequence (P48730 whole entry, looked up, the tested form may be a part, canonical isoform): as the sequence (Q06486 whole entry, looked up, the tested form may be a part, canonical isoform) above, with V381I counted along it

SMILES: COc1cc(OC)c(/C=C2/C(=O)Nc3ccccc32)c(OC)c1
- inhibition [1]: 40%

SMILES: Cc1ccc2nc(NC(=O)CSc3nc4c(c(=O)n3-c3ccc(F)cc3)SCC4)sc2c1
- EC50 [2]: > 10000 nM
- EC50 (HEK293): 3500 nM
- EC50 (MIA PaCa-2): 5340 nM
- Ratio IC50 [3]: 4
- Ratio IC50 [4]: < 17
- IC50 [5]: 150 nM
- inhibition [6]: Active
- EC50 [7]: 5070 nM
- EC50 (SW-620): 8620 nM
- inhibition [8]: inactive
- IC50 [9]: > 10000 nM
- EC50 (CAPAN-1): > 10000 nM
- EC50 (PANC-1): 4870 nM
- EC50 (HT-29): > 10000 nM
- inhibition [10]: Active
- Ratio IC50 [11]: 4 to 7
- IC50 [12]: 550 nM
- inhibition [13]: Active
- IC50 [14]: 1890 nM

SMILES: Fc1cccc(-n2cnc3c(NCc4nc5c(F)c(F)ccc5[nH]4)nc(N4CCOCC4)nc32)c1
- inhibition [15]: Dose-dependent effect
- inhibition [16]: Dose-dependent effect

SMILES: Nc1nccc(-c2c(-c3ccc(F)cc3)ncn2C2CCCCC2)n1
- inhibition [17]: 40%

SMILES: O=C(CSc1nc2c(c(=O)n1Cc1ccc(OC(F)(F)F)cc1)SCC2)Nc1nc2ccc(C(F)(F)F)cc2s1
- inhibition [18]: Active
- inhibition [19]: Active
- IC50 [14]: 700 nM

SMILES: O=C(CSc1nc2c(c(=O)n1-c1ccccc1)SCC2)Nc1nc2ccc(C(F)(F)F)cc2s1
- inhibition [18]: Active
- IC50 [5]: 210 nM
- inhibition [19]: Active
- IC50 [9]: 4120 nM
- IC50 [12]: 400 nM
- IC50 [14]: 660 nM

SMILES: Cc1cc(-c2ccc(CC(=O)Nc3ccc(-c4cccnc4)cc3)cc2)ccn1
- fold change (FC) (HEK-293T [20]): <= 1.5
- Imax [21]: 1.1%
- inhibition (Homo sapiens): inactive
- IC50 [22]: < 1 nM
- fold change (FC) (HEK-293T [23]): <= 1.3

SMILES: O=C(CSc1nc2c(c(=O)n1Cc1cccc(C(F)(F)F)c1)SCC2)Nc1nc2ccc(C(F)(F)F)cc2s1
- inhibition [18]: Active
- inhibition [19]: Active
- IC50 [14]: 1030 nM

SMILES: Cc1ccc2nc(NC(=O)CSc3nc4c(c(=O)n3Cc3ccccc3)SCC4)sc2c1
- EC50 [2]: > 10000 nM
- EC50 (HEK293): > 10000 nM
- EC50 (MIA PaCa-2): 5650 nM
- Ratio IC50 [3]: 4
- Ratio IC50 [4]: < 17
- IC50 [5]: 60 nM
- inhibition [24]: Active
- inhibition [6]: Active
- EC50 [7]: 3100 nM
- EC50 (SW-620): 8520 nM
- inhibition [8]: inactive
- IC50 [9]: 7340 nM
- EC50 (CAPAN-1): > 10000 nM
- EC50 (PANC-1): > 10000 nM
- EC50 (HT-29): > 10000 nM
- inhibition [10]: Active
- Ratio IC50 (Rattus norvegicus): 28
- Ratio IC50 [11]: 4 to 7
- IC50 [12]: 420 nM
- inhibition [13]: Active
- IC50 [14]: 1660 nM

SMILES: COc1ccccc1-n1c(SCC(=O)Nc2nc3ccc(C)cc3s2)nc2c(c1=O)SCC2
- EC50 [2]: 930 nM
- EC50 (HEK293): 280 nM
- EC50 (MIA PaCa-2): 230 nM
- Ratio IC50 [4]: < 17
- IC50 [5]: 140 nM
- EC50 [7]: 580 nM
- EC50 (SW-620): 230 nM
- IC50 [9]: 7070 nM
- EC50 (CAPAN-1): 230 nM
- EC50 (PANC-1): 230 nM
- EC50 (HT-29): 340 nM
- Activity [25]: 22%
- Ratio IC50 [11]: 4 to 7
- IC50 [12]: 1020 nM
- Activity [26]: 25%
- IC50 [14]: 1060 nM

SMILES: COc1cccc(Cn2c(SCC(=O)Nc3nc4ccc(C(F)(F)F)cc4s3)nc3c(c2=O)SCC3)c1OC
- inhibition [18]: Active
- IC50 [5]: 210 nM
- inhibition [19]: Active
- IC50 [9]: 1230 nM
- IC50 [12]: 230 nM
- IC50 [14]: 760 nM

SMILES: O=C(CSc1nc2c(c(=O)n1Cc1ccccc1)SCC2)Nc1nc2ccc(C(F)(F)F)cc2s1
- inhibition [18]: Active
- IC50 [5]: 270 nM
- inhibition [19]: Active
- IC50 [9]: 1410 nM
- IC50 [12]: 520 nM
- IC50 [14]: 1060 nM

SMILES: O=C(CSc1nc2c(c(=O)n1Cc1ccc(C(F)(F)F)cc1)SCC2)Nc1nc2ccc(C(F)(F)F)cc2s1
- inhibition [18]: Active
- inhibition [19]: Active
- IC50 [14]: 330 nM
